Data published in PubChem BioAssay (NCI).
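Briefly, cells in 96-well plates were exposed to five compound concentrations for 48 h, and endpoints were estimated by linear interpolation. GI50: concentration for 50% inhibition of growth. TGI: concentration producing complete growth inhibition.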

Columns and labels:
Test in all cases: NCI anticancer screen, dose series, 48 h
[1] = tested on: MCF7 breast
[2] = tested on: NCI/ADR-RES ovarian
[3] = tested on: UACC-62 melanoma
[4] = tested on: MDA-MB-435
[5] = tested on: SF-539 CNS
[6] = tested on: NCI-H23 lung
[7] = tested on: ACHN renal
[8] = tested on: A498 renal
[9] = tested on: SK-OV-3 ovarian
[10] = tested on: CCRF-CEM leukemia
[11] = tested on: IGROV1 ovarian
[12] = tested on: U251 CNS
[13] = tested on: CAKI-1 renal
[14] = tested on: SNB-19 CNS
[15] = tested on: SW-620 colon
[16] = tested on: HOP-92 NSCLC
[17] = tested on: K-562 leukemia
[18] = tested on: UO-31 renal
[19] = tested on: UACC-257 melanoma
[20] = tested on: KM12 colon
[21] = tested on: HL-60(TB) leukemia
[22] = tested on: SK-MEL-28 melanoma
[23] = tested on: RPMI-8226 leukemia
[24] = tested on: DU-145 prostate
[25] = tested on: M14 melanoma
[26] = tested on: PC-3 prostate
[27] = tested on: SF-295 CNS
[28] = tested on: MALME-3M melanoma
[29] = tested on: HCC-2998 colon
[30] = tested on: SR leukemia
[31] = tested on: LOX IMVI melanoma
[32] = tested on: HS 578T breast
[33] = tested on: HCT-116 colon
[34] = tested on: MDA-MB-231 breast
[35] = tested on: OVCAR-5 ovarian
[36] = tested on: 786-0 renal
[37] = tested on: SK-MEL-5 melanoma
[38] = tested on: OVCAR-4 ovarian
[39] = tested on: HCT-15 colon
[40] = tested on: NCI-H226 lung
[41] = tested on: OVCAR-8 ovarian
[42] = tested on: SNB-75 CNS
[43] = tested on: COLO 205 colon
[44] = tested on: NCI-H460 lung
[45] = tested on: EKVX NSCLC
[46] = tested on: MOLT-4 leukemia
[47] = tested on: A549 NSCLC
[48] = tested on: SF-268 CNS
[49] = tested on: RXF 393 renal
[50] = tested on: HOP-62 NSCLC
[51] = tested on: OVCAR-3 ovarian
[52] = tested on: SN12C renal
[53] = tested on: NCI-H522 lung
[54] = tested on: T-47D breast
[55] = tested on: TK-10 renal
[56] = tested on: BT-549 breast
[57] = tested on: HT29 colon
[58] = tested on: SK-MEL-2 melanoma

COc1cc(/C=C/[N+](=O)[O-])c([N+](=O)[O-])cc1OC
GI50 [1]: 1.12 µM | TGI [1]: 2.73 µM | GI50 [2]: 2.85 µM | TGI [2]: 10.1 µM | GI50 [3]: 2.34 µM | TGI [3]: 7.14 µM | GI50 [4]: 2.17 µM | TGI [4]: 7.51 µM | GI50 [5]: 3.27 µM | TGI [5]: 84.7 µM | GI50 [6]: 2.12 µM | TGI [6]: 4.94 µM | GI50 [7]: 1.56 µM | TGI [7]: 2.9 µM | GI50 [8]: 3.03 µM | TGI [8]: 11.9 µM | GI50 [9]: 12.8 µM | TGI [9]: 25.4 µM | GI50 [10]: 2.13 µM | TGI [10]: 6.07 µM | GI50 [11]: 2.55 µM | TGI [11]: 11.9 µM | GI50 [12]: 1.92 µM | TGI [12]: 5.35 µM | GI50 [13]: 1.7 µM | TGI [13]: 7.17 µM | GI50 [14]: 6 µM | TGI [14]: 19.8 µM | GI50 [15]: 0.785 µM | TGI [15]: 2.26 µM | GI50 [16]: 2.05 µM | TGI [16]: 4.27 µM | GI50 [17]: 1.64 µM | TGI [17]: > 100 µM | GI50 [18]: 1.36 µM | TGI [18]: 2.81 µM | GI50 [19]: 2.91 µM | TGI [19]: 11.9 µM | GI50 [20]: 1.93 µM | TGI [20]: 3.92 µM | GI50 [21]: 1.32 µM | TGI [21]: 5.71 µM | GI50 [22]: 2.06 µM | TGI [22]: 4.72 µM | GI50 [23]: 2.53 µM | TGI [23]: 5.74 µM | GI50 [24]: 1.58 µM | TGI [24]: 2.93 µM | GI50 [25]: 1.6 µM | TGI [25]: 2.98 µM | GI50 [26]: 2.3 µM | TGI [26]: 5.7 µM | GI50 [27]: 6.72 µM | TGI [27]: 22.1 µM | GI50 [28]: 1.71 µM | TGI [28]: 3.38 µM | GI50 [29]: 1.73 µM | TGI [29]: 3.22 µM | GI50 [30]: 1.6 µM | TGI [30]: 8.24 µM | GI50 [31]: 1.68 µM | TGI [31]: 3.05 µM | GI50 [32]: 1.88 µM | TGI [32]: 7.45 µM | GI50 [33]: 0.977 µM | TGI [33]: 2.14 µM | GI50 [34]: 1.7 µM | TGI [34]: 3.46 µM | GI50 [35]: 1.98 µM | TGI [35]: 3.98 µM | GI50 [36]: 1.61 µM | TGI [36]: 2.95 µM | GI50 [37]: 3.39 µM | TGI [37]: 12.3 µM | GI50 [38]: 1.57 µM | TGI [38]: 2.93 µM | GI50 [39]: 1.33 µM | TGI [39]: 4.49 µM | GI50 [40]: 2.63 µM | TGI [40]: 7.68 µM | GI50 [41]: 2.5 µM | TGI [41]: 9.46 µM | GI50 [42]: 2.25 µM | TGI [42]: 7.56 µM | GI50 [43]: 1.16 µM | TGI [43]: 2.43 µM | GI50 [44]: 2.33 µM | TGI [44]: 5.67 µM | GI50 [45]: 8.98 µM | TGI [45]: 22.6 µM | GI50 [46]: 2.21 µM | TGI [46]: 9.11 µM | GI50 [47]: 3.38 µM | TGI [47]: 10.3 µM | GI50 [48]: 2.71 µM | TGI [48]: 11.3 µM | GI50 [49]: 1.38 µM | TGI [49]: 2.67 µM | GI50 [50]: 2.91 µM | TGI [50]: 8.74 µM | GI50 [51]: 1.3 µM | TGI [51]: 2.57 µM

O=C(CCCBr)Nc1ccccc1C#C/C=C\C#Cc1ccccc1C(F)(F)F
GI50 [1]: 26.6 µM | TGI [1]: > 50 µM | GI50 [2]: 11.9 µM | TGI [2]: 29.2 µM | GI50 [3]: 14.1 µM | TGI [3]: > 50 µM | GI50 [4]: 13.5 µM | TGI [4]: 32.6 µM | GI50 [5]: 21.2 µM | TGI [5]: > 50 µM | GI50 [6]: 16.2 µM | TGI [6]: > 50 µM | GI50 [7]: 26.8 µM | TGI [7]: > 50 µM | GI50 [8]: 15.8 µM | TGI [8]: 47.3 µM | GI50 [9]: > 50 µM | TGI [9]: > 50 µM | GI50 [10]: 15 µM | TGI [10]: 35.7 µM | GI50 [11]: 6.75 µM | TGI [11]: 26.9 µM | GI50 [12]: 11.3 µM | TGI [12]: 31.1 µM | GI50 [13]: 15.3 µM | TGI [13]: > 50 µM | GI50 [14]: > 50 µM | TGI [14]: > 50 µM | GI50 [15]: 22.5 µM | TGI [15]: > 50 µM | GI50 [16]: 19.7 µM | TGI [16]: > 50 µM | GI50 [52]: 10.6 µM | TGI [52]: 29.9 µM | GI50 [17]: 21.6 µM | TGI [17]: > 50 µM | GI50 [53]: 15.5 µM | TGI [53]: > 50 µM | GI50 [18]: 20.2 µM | TGI [18]: > 50 µM | GI50 [19]: 19.1 µM | TGI [19]: > 50 µM | GI50 [20]: 17.4 µM | TGI [20]: > 50 µM | GI50 [21]: 16.1 µM | TGI [21]: 45 µM | GI50 [22]: 10.3 µM | TGI [22]: 25.7 µM | GI50 [23]: 14.2 µM | TGI [23]: > 50 µM | GI50 [24]: > 50 µM | TGI [24]: > 50 µM | GI50 [25]: 12.1 µM | TGI [25]: 29.5 µM | GI50 [26]: 23.1 µM | TGI [26]: > 50 µM | GI50 [27]: 27.6 µM | TGI [27]: > 50 µM | GI50 [28]: 18.7 µM | TGI [28]: > 50 µM | GI50 [54]: > 50 µM | TGI [54]: > 50 µM | GI50 [29]: 7.25 µM | TGI [29]: 20.3 µM | GI50 [31]: 22.6 µM | TGI [31]: > 50 µM | GI50 [32]: 36.5 µM | TGI [32]: > 50 µM | GI50 [33]: 10.9 µM | TGI [33]: 43.7 µM | GI50 [34]: 12.8 µM | TGI [34]: 33.4 µM | GI50 [35]: > 50 µM | TGI [35]: > 50 µM | GI50 [36]: 13.5 µM | TGI [36]: > 50 µM | GI50 [55]: 38.8 µM | TGI [55]: > 50 µM | GI50 [37]: 38.3 µM | TGI [37]: > 50 µM | GI50 [38]: 10.1 µM | TGI [38]: 31.9 µM | GI50 [39]: 20.6 µM | TGI [39]: > 50 µM | GI50 [40]: 13.9 µM | TGI [40]: 44.8 µM | GI50 [41]: 24.2 µM | TGI [41]: > 50 µM | GI50 [42]: 9.07 µM | TGI [42]: 40.6 µM | GI50 [56]: 19.8 µM | TGI [56]: > 50 µM | GI50 [57]: 8.56 µM | TGI [57]: 20.8 µM | GI50 [58]: 27.8 µM | TGI [58]: > 50 µM | GI50 [43]: > 50 µM | TGI [43]: > 50 µM | GI50 [44]: 19.2 µM | TGI [44]: > 50 µM | GI50 [45]: 39.1 µM | TGI [45]: > 50 µM | GI50 [46]: 16.3 µM | TGI [46]: > 50 µM | GI50 [47]: 19.3 µM | TGI [47]: > 50 µM | GI50 [48]: 35.3 µM | TGI [48]: > 50 µM | GI50 [49]: 8.35 µM | TGI [49]: 28.4 µM | GI50 [50]: 4.76 µM | TGI [50]: 20.6 µM | GI50 [51]: 13.3 µM | TGI [51]: 48.9 µM
